For two compounds, pest or weed control results are on record in patent publication US8895587B2, “Insecticidal compounds based on arylthioacetamide derivatives” (Syngenta Participations AG, priority 2011, dated 2014).

Where only a bound is given, the exact number is not on record here.

Format in all cases: in vivo
One test relates to Spodoptera littoralis. The test is described as follows: Spodoptera littoralis (Egyptian cotton leafworm) leaf disc test. The note with it: foliar, 72 h, application rate 200 ppm, cotton leaf discs, L1 larvae, mortality, feeding behavior, growth regulation 3 DAT. The source says:
Spodoptera littoralis (Egyptian Cotton Leafworm): Cotton leaf discs were placed on agar in a 24-well microtiter plate and sprayed with test solutions at an application rate of 200 ppm. After drying, the leaf discs were infested with 5 L1 larvae. The samples were checked for mortality, feeding behavior, and growth regulation 3 days after treatment (DAT).

Test [1] relates to Heliothis virescens. The test is described as follows: Heliothis virescens (tobacco budworm) egg/larval test on artificial diet. To be noted: 96 h, application rate 200 ppm (concentration in well 18 ppm), eggs on artificial diet, 4 days. On the procedure:
Eggs (0-24 h old) were placed in 24-well microtiter plate on artificial diet and treated with test solutions at an application rate of 200 ppm (concentration in well 18 ppm) by pipetting. After an incubation period of 4 days, samples were checked for egg mortality, larval mortality, and growth regulation.

The test system of test [2] is Plutella xylostella. Kind of test: Plutella xylostella (diamond back moth) larval test on artificial diet. To be noted: 144 h, application rate 200 ppm (concentration in well 18 ppm), L2 larvae on artificial diet, 6 days. On the procedure: 24-well microtiter plate (MTP) with artificial diet was treated with test solutions at an application rate of 200 ppm (concentration in well 18 ppm) by pipetting. After drying, the MTP's were infested with L2 larvae (7-12 per well). After an incubation period of 6 days, samples were checked for larval mortality and growth regulation.

Test [3] concerns Diabrotica balteata. The test is described as follows: Diabrotica balteata (corn root worm) larval test on artificial diet. To be noted: 120 h, application rate 200 ppm (concentration in well 18 ppm), L2 larvae on artificial diet, 5 days. On the procedure:
Diabrotica balteata (Corn Root Worm): A 24-well microtiter plate (MTP) with artificial diet was treated with test solutions at an application rate of 200 ppm (concentration in well 18 ppm) by pipetting. After drying, the MTP's were infested with L2 larvae (6-10 per well). After an incubation period of 5 days, samples were checked for larval mortality and growth regulation.

Another test concerns Myzus persicae. The test is described as follows: Myzus persicae (green peach aphid), systemic test. To be noted: 144 h, application rate 12.5 ppm, roots of pea seedlings in test solution, 6 days. The source says: Myzus persicae (Green peach aphid), systemic test: Roots of pea seedlings, infested with an aphid population of mixed ages, are placed directly in the test solutions at an application rate of 12.5 ppm. 6 days after introduction, samples are checked for mortality and special effects on the plant. The following compounds gave at least 80% control of Myzus persicae: […]

A further test relates to Thrips tabaci. Kind of test: Thrips tabaci (onion thrips) leaf disc test. The note with it: foliar, 168 h, application rate 200 ppm, sunflower leaf discs, 7 days. On the procedure: Sunflower leaf discs were placed on agar in a 24-well microtiter plate and sprayed with test solutions at an application rate of 200 ppm. After drying, the leaf discs were infested with a thrips population of mixed ages. After an incubation period of 7 days, samples were checked for mortality.

A further test relates to Tetranychus urticae. Kind of test: Tetranychus urticae (two-spotted spider mite) leaf disc test. To be noted: foliar, 192 h, application rate 200 ppm, bean leaf discs, 8 days. The source says: Bean leaf discs on agar in 24-well microtiter plates were sprayed with test solutions at an application rate of 200 ppm. After drying, the leaf discs are infested with mite populations of mixed ages. 8 days later, discs are checked for egg mortality, larval mortality, and adult mortality.

The test system of test [4] is Heliothis virescens. The test is described as follows: Heliothis virescens (tobacco budworm) egg/larval test on artificial diet. To be noted: 96 h; for pest or weed control at 0.8 ppm: application rate 0.8 ppm; for pest or weed control at 3 ppm: application rate 3 ppm.
Test [5] has as its system Plutella xylostella. Kind of test: Plutella xylostella (diamond back moth) larval test on artificial diet. To be noted: 144 h; for pest or weed control at 0.8 ppm: application rate 0.8 ppm; for pest or weed control at 3 ppm: application rate 3 ppm.
For test [6], the system named is Diabrotica balteata. The test is described as follows: Diabrotica balteata (corn root worm) larval test on artificial diet. To be noted: 120 h, read-out: Control/% Diabrotica balteata Corn rootworm; for pest or weed control at 12 ppm: application rate 12 ppm; for pest or weed control at 50 ppm: application rate 50 ppm.

For the compound `Cc1cc(C2=NOC(c3cc(Cl)cc(Cl)c3)(C(F)(F)F)C2)ccc1[S+]([O-])CC(=O)NCC(F)(F)F` (stereo not drawn) [Compound A50, 2-{4-[5-(3,5-Dichloro-phenyl)-5-trifluoromethyl-4,5-dihydro-isoxazol-3-yl]-2-methyl-benzenesulfinyl}-N-(2,2,2-trifluoro-ethyl)-acetamide], the pest or weed control at 200 ppm with Spodoptera littoralis, in the test on Heliothis virescens [1], with Plutella xylostella [2], in the test with Diabrotica balteata [3], in the test on Thrips tabaci and in the test with Tetranychus urticae was at least 80% in each case. Moreover, the pest or weed control at 12.5 ppm in the test with Myzus persicae was at least 80%. The pest or weed control at 0.8 ppm in the test with Heliothis virescens [4] and with Plutella xylostella [5] was 80% throughout. Further, the pest or weed control at 3 ppm in the test on Heliothis virescens [4] was 80%; with Plutella xylostella [5], 100%; in the test with Diabrotica balteata [6] (application rate 3 ppm), 75%. Also, in the test with Diabrotica balteata [6], the pest or weed control at 12 ppm was found to be 100%. The pest or weed control at 50 ppm with Diabrotica balteata [6] came out at 100%.

For the compound `Cc1cc(C2=NOC(c3cc(Cl)cc(Cl)c3)(C(F)(F)F)C2)ccc1S(=O)(=O)CC(=O)NCC(F)(F)F` (stereo not drawn) [Compound A51, 2-{4-[5-(3,5-Dichloro-phenyl)-5-trifluoromethyl-4,5-dihydro-isoxazol-3-yl]-2-methyl-benzenesulfonyl}-N-(2,2,2-trifluoro-ethyl)-acetamide], the pest or weed control at 200 ppm in the test on Spodoptera littoralis, in the test on Heliothis virescens [1], in the test on Plutella xylostella [2], in the test with Diabrotica balteata [3], in the test with Thrips tabaci and in the test on Tetranychus urticae was at least 80% in each case. The pest or weed control at 12.5 ppm in the test with Myzus persicae was at least 80%. In addition, the pest or weed control at 0.8 ppm in the test on Heliothis virescens [4] and with Plutella xylostella [5] was 80% in each case. The pest or weed control at 3 ppm was 80% in the test on Heliothis virescens [4] and 100% in the test on Plutella xylostella [5]. Further, in the test on Diabrotica balteata [6], the pest or weed control at 12 ppm worked out at 100%. Further, the pest or weed control at 50 ppm in the test with Diabrotica balteata [6] turned out to be 100%.
